Test results reported in the supplement of paper PMC11451515.

How the values were obtained:
Assay in all cases: AUC of viability dose-response curve (% viability x log10 dose units); higher = less sensitive
Conditions in all cases: 48 h
NOMO1 = tested on: NOMO1
Method in brief: (§1)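 Viability of medium-adapted leukemia cells was measured by CellTiter-Glo One luminescence after 48 h at 37°C with library compounds in DMSO. Doses were 11 threefold steps from 47 μM to 0.79 nM, in 1536-well plates at 500 or 1000 cells/well. Signals were normalised per plate to DMSO and cell-free wells and fitted with a four-parameter log-logistic model on log10 dose. Area under the curve was integrated by trapezoidal rule, with curves exceeding full viability scaled and failed quality-control curves removed.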

P12-Ichikawa = tested on: P12-Ichikawa
Method in brief: as §1

SEM cells = tested on: SEM cells
Method in brief: as §1

[1] = RPMI 5 mM glucose + 10% dialyzed FBS

SMILES	AUC of viability dose-response curve (NOMO1; HPLM + 10% dialyzed FBS)	AUC of viability dose-response curve (NOMO1; RPMI 5 mM glucose + 10% FBS)	AUC of viability dose-response curve (NOMO1; [1])	AUC of viability dose-response curve (P12-Ichikawa; HPLM + 10% dialyzed FBS)	AUC of viability dose-response curve (P12-Ichikawa; RPMI 5 mM glucose + 10% FBS)	AUC of viability dose-response curve (P12-Ichikawa; [1])	AUC of viability dose-response curve (SEM cells; HPLM + 10% dialyzed FBS)	AUC of viability dose-response curve (SEM cells; RPMI 5 mM glucose + 10% FBS)	AUC of viability dose-response curve (SEM cells; [1])
CO[C@H]1CCC(O[C@H]2C[C@H]([C@]3(C)CC[C@]4(C[C@H](O)[C@@H](C)[C@@H]([C@@H](C)/C=C(\C)C(=O)[C@H](C)C[C@H](C)C(=O)[O-])O4)O3)O[C@]3(O[C@@H]([C@H]4O[C@@](O)(CO)[C@H](C)C[C@@H]4C)C[C@@H]3C)[C@@H]2C)O[C@@H]1C (some centres undefined)	405	449	415	353	366	376	368	352	344
CCCCCNC(=N)N/N=C/c1c[nH]c2ccc(OC)cc12	440	442	441	429	429	436	426	424	428
Clc2cccc(Cl)c2\N=C1/NCCN1	455	474	468	446	448	452	414	407	429
N[S+](=O)([O-])c1ccc(Nc2nc(OCC3CCCCC3)c3[nH]cnc3n2)cc1	330	346	357				307	276	298
C[C@]1(O)CC(C1)C2=NC(=C3[N]2C=CN=C3N)C4=CC5=C(C=C4)C=CC(=N5)C6=CC=CC=C6 (centres undefined)	321	319	301	396	358	366			
CC[C@H]1OC(=O)[C@H](C)[C@@H](O[C@H]2C[C@@](C)(OC)[C@@H](O)[C@H](C)O2)[C@H](C)[C@@H](O[C@@H]2O[C@H](C)C[C@H](N(C)C)[C@H]2O)[C@](C)(OC)C[C@@H](C)C(=O)[C@H](C)[C@@H](O)[C@]1(C)O	405	440	409	435	443	437	452	461	452
CCC(CCCC)COC(=O)C(\C#N)=C(\c1ccccc1)c2ccccc2 (centres undefined)	465	439	431	463	469	460	438	425	449
O=C1NC(=O)/C(=C/c2ccc3nccnc3c2)S1	457	444	439	464	443	453	441	441	428
Cc1cn2cc(C(=O)N(C)CCO)cc(N[C@@H]3CCOc4cccc(C)c43)c2n1	462	422	443	465	470	469			
CN1C(=O)/C(=C(NC2=CC=C(I)C=C2F)\C3=C1\N=C/N(C[C@@H](O)CO)C3=O)F	229	231	216	381	342	369	339	330	295
CN1C(=O)c2sccc2N(C)c2nc(Nc3ccc([S+](N)(=O)[O-])cc3)ncc21	379	390	378	343	349	355	345	348	348
COc1cc(C(=O)NC2CCN(C)CC2)ccc1Nc1ncc2c(n1)N(C1CCCC1)CCC(=O)N2C(C)C	432	442	457	406	410	411			
Cc1nc(-c2ccc(OCC(C)C)c(C#N)c2)sc1C(=O)O	461	471	468	467	424	437	475	472	458
OC(=O)\C1=C\N(C2CC2)C3=CC(=C(F)C=C3C1=O)N4CCNCC4	404	428	422	451	456	455			
CNC[C@H](O)[C@@H](O)[C@H](O)[C@H](O)CO	432	473	470	471	471	474			
C=CC(=O)Nc1cccc(Sc2nc(Nc3ccc(N4CCN(C)CC4)cc3)ncc2Cl)c1	454	455	456						
CCCOc1ccc(C(=O)OCCN(CC)CC)cc1N	465	468	464	453	448	446			
CN(C)C/C=C/C(=O)Nc1ccc(C(=O)Nc2cccc(Nc3ncc(Cl)c(-c4c[nH]c5ccccc45)n3)c2)cc1	248	248	235	240	234	247			
Oc1ccc(OCc2ccccc2)cc1	441	444	457	435	420	407			
CNC(=O)c1ccc2c(c1)NC(=O)/C2=C(\Nc1cccc(CN(C)C)c1)c1ccccc1	400	399	380				318	303	302
